This is an account of results in US20240150356A1, “Pyrimidine amide compounds and use thereof” (ALPHALA CO., LTD., priority 2019, published 2024).

Like-named read-outs stand apart in the source and are kept apart here. Some results are limits rather than exact numbers.

In this test the test system is Hep3B cells (hepatocellular carcinoma cell line). As to the kind of experiment: In vitro MTS cell viability assay (NCI-60 methodology), Hep3B. The class given is cell-based. The note with it: Homo sapiens, 48 h. The gist of the method: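 Following NCI-60 method, MTS viability of Hep3B measured 24 h after plating (time zero) and after a further 2-day exposure to five concentrations (2-fold series). LC50 defined where [(Ti−Tz)/Tz]×100 = −50.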
On the technique in general: Tetrazolium assays rely on reduction of a dye to a coloured formazan, in cell work by metabolically active cells.

Where [1] appears, read: Table 6, MTS, 2 days drug incubation, 50% reduction vs time zero, read-out: Hep3B LC50.
Setting [2] is: Table 10, MTS, 2 days drug incubation, 50% reduction vs time zero, read-out: Hep3B LC50.
Setting [3] is: Table 5, MTS, 2 days drug incubation, 50% reduction vs time zero, read-out: Hep3B LC50.

As to `COCCN(C)c1ccc(-c2nc(NC(=O)c3ccc([N+](=O)[O-])s3)c3cnn(-c4ccc(F)cc4)c3n2)cn1` [Compound 6-131, N-(1-(4-fluorophenyl)-6-(6-((2-methoxyethyl)(methyl)amino)pyridin-3-yl)-1H-pyrazolo[3,4-d]pyrimidin-4-yl)-5-nitrothiophene-2-carboxamide], the LC50 under setting [1] is 0.37 µM. As to `CCOCCOCCOc1ccc(-c2nc(NC(=O)c3ccc([N+](=O)[O-])s3)c3cnn(C4CCCCC4)c3n2)cn1` [Compound 10-53, N-(1-cyclohexyl-6-(6-(2-(2-ethoxyethoxy)ethoxy)pyridin-3-yl)-1H-pyrazolo[3,4-d]pyrimidin-4-yl)-5-nitrothiophene-2-carboxamide], the LC50 under setting [2] was determined as 1.23 µM.

Consider `O=C(Nc1nc(-c2cncnc2)nc2c1cnn2-c1ccccc1)c1ccc([N+](=O)[O-])s1` [Compound 5-24, 5-nitro-N-(1-phenyl-6-(pyrimidin-5-yl)-1H-pyrazolo[3,4-d]pyrimidin-4-yl)thiophene-2-carboxamide], for which, under setting [3], the LC50 was determined as 0.96 µM. Take `Cn1cc2nc(-c3ccc(C(C)(C)C)cc3)nc(NC(=O)c3ccc([N+](=O)[O-])s3)c2c1` [Compound 3-10, N-(2-(4-(tert-butyl)phenyl)4-methyl-6H-pyrrolo[3,4,d]pyrimidin-4-yl)-5-nitrothiophene-2-carboxamide]: the LC50 (Table 3, MTS, 2 days drug incubation, 50% reduction vs time zero, read-out: Hep3B LC50) came out at 10 µM. Consider `CC(C)(C)[Si](C)(C)OC1CN(c2nc(NC(=O)c3ccc([N+](=O)[O-])s3)c3cnn(-c4ccc(OC(F)(F)F)cc4)c3n2)C1` [Compound 6-84], for which the LC50 (read-out: Hep3B LC50 (uM)) was 1.13 µM. Consider `C=CC(=O)N1CCC(n2ncc3c(NC(=O)c4ccc([N+](=O)[O-])s4)nc(-c4ccc(F)nc4)nc32)CC1` [Compound 9-6], for which, under “Table 9, MTS, 2 days drug incubation, 50% reduction vs time zero, read-out: Hep3B LC50”, the LC50 was 1.25 µM. For the compound `O=C(Nc1nc(Sc2ccccc2)nc2c1cnn2-c1ccccc1)c1ccc([N+](=O)[O-])s1` [Compound 5-15, 5-nitro-N-(1-phenyl-6-(phenylthio)-1H-pyrazolo[3,4-d]pyrimidin-4-yl)thiophene-2-carboxamide], the LC50 under setting [3] is above 5 µM.

As to `O=C(Nc1nc(-c2cccc(OC(F)(F)F)c2)nc2c1cnn2-c1cccc(Cl)c1)c1ccc([N+](=O)[O-])s1` [Compound 6-40, N-(1-(3-chlorophenyl)-6-(3-(trifluoromethoxy)phenyl)-1H-pyrazolo[3,4-d]pyrimidin-4-yl)-5-nitrothiophene-2-carboxamide], the LC50 under setting [1] was 0.48 µM. Consider `O=C(Nc1nc(-c2ccc(Cl)cc2)nc2c1cnn2-c1cccc(F)c1)c1ccc([N+](=O)[O-])s1` [Compound 6-91, N-(6-(4-chlorophenyl)-1-(3-fluorophenyl)-1H-pyrazolo[3,4-d]pyrimidin-4-yl)-5-nitrothiophene-2-carboxamide], for which the LC50 under setting [1] was found to be 0.18 µM.

On to `O=C(Nc1nc(-c2ccc(F)cc2F)nc2c1cnn2C1CCCCC1)c1ccc([N+](=O)[O-])s1` [Compound 10-39], for which, under setting [2], the LC50 is 1.24 µM.

Take `COCCOc1ccc(-c2nc(NC(=O)c3ccc([N+](=O)[O-])s3)c3cnn(-c4cccc(Cl)c4)c3n2)cn1` [Compound 6-43, N-(1-(3-chlorophenyl)-6-(6-(2-methoxyethoxy)pyridin-3-yl)-1H-pyrazolo[3,4-d]pyrimidin-4-yl)-5-nitrothiophene-2-carboxamide]: under setting [1], the LC50 came to 0.09 µM. Turning to `O=C(Nc1nc(-c2ccc3c(c2)OCO3)nc2c1cnn2-c1cccc(F)c1)c1ccc([N+](=O)[O-])s1` [Compound 6-92, N-(6-(benzo[d][1,3]dioxol-5-yl)-1-(3-fluorophenyl)-1H-pyrazolo[3,4-d]pyrimidin-4-yl)-5-nitrothiophene-2-carboxamide], under setting [1], the LC50 turned out to be 0.45 µM. As to `O=C(Nc1nc(-c2ccc(OC(F)(F)F)cc2)nc2c1cnn2C1CCCCC1)c1ccc([N+](=O)[O-])s1` [Compound 10-26, N-(1-cyclohexyl-6-(4-(trifluoromethoxy)phenyl)-1H-pyrazolo[3,4-d]pyrimidin-4-yl)-5-nitrothiophene-2-carboxamide], the LC50 under setting [2] is 0.68 µM. For the compound `Cc1csc2c(-c3cccc(OC(F)(F)F)c3)nc(NC(=O)c3ccc([N+](=O)[O-])s3)nc12` [Compound 2-7, N-(7-methyl-(3-(trifluoromethoxy)phenyl)thieno[3,2-d]pyrimidin-2-yl)-5-nitrothiophene-2-carboxamide], the LC50 (Table 2, MTS, 2 days drug incubation, 50% reduction vs time zero, read-out: Hep3B LC50) stood at 3.43 µM. Regarding `COCCOc1ccc(-c2nc(NC(=O)c3ccc([N+](=O)[O-])s3)c3cnn(-c4ccc(F)cc4)c3n2)c(F)c1` [Compound 6-138, N-(6-(2-fluoro-4-(2-methoxyethoxy)phenyl)-1-(4-fluorophenyl)-1H-pyrazolo[3,4,d]pyrimidin-4-yl)-5-nitrothiophene-2-carboxamide], the LC50 under setting [1] is above 1.25 µM.

As to `O=C(Nc1nc(-c2ccc(F)cc2)nc2c(-c3cccc(F)c3)csc12)c1ccc([N+](=O)[O-])s1` [Compound 4-18, N-(7-(3-fluorophenyl)-2-(4-fluorophenyl)thieno[3,2-d]pyrimidin-4-yl)-5-nitrothiophene-2-carboxamide], the LC50 (Table 4, MTS, 2 days drug incubation, 50% reduction vs time zero, read-out: Hep3B LC50) came out at 0.49 µM. `O=C(Nc1nc(-c2ccc(OC(F)(F)F)cc2)nc2c1cnn2CCO)c1ccc([N+](=O)[O-])s1` [Compound 1-28, N-(1-(2-hydroxyethyl)-6-(4-(trifluoromethoxy)phenyl)-1H-pyrazolo[3,4-d]pyrimidin-4-yl)-5-nitrothiophene-2-carboxamide]: under “Table 1, MTS, 2 days drug incubation, 50% reduction vs time zero, read-out: Hep3B LC50”, the LC50 was 4.03 µM. `O=C(Nc1nc(-c2ccc(Cl)c(F)c2)nc2c1cnn2-c1ccccc1)c1ccc([N+](=O)[O-])s1` [Compound 5-46, N-(6-(4-chloro-3-fluorophenyl)-1-phenyl-1H-pyrazolo[3,4-d]pyrimidin-4-yl)-5-nitrothiophene-2-carboxamide]: under setting [3], the LC50 amounted to 0.24 µM. As to `COC(=O)c1ccc(-c2nc(NC(=O)c3ccc([N+](=O)[O-])s3)c3cnn(C4CC(C)CC(C)C4)c3n2)cc1` (centres unmarked) [Compound 10-71, methyl 4-(1-(3,5-dimethylcyclohexyl)-4-(5-nitrothiophene-2-carboxamido)-1H-pyrazolo[3,4-d]pyrimidin-6-yl)benzoate], the LC50 under setting [2] turned out to be 0.69 µM.

As to `O=C(Nc1nc(-n2ccc(C(F)(F)F)n2)nc2c1cnn2-c1ccccc1)c1ccc([N+](=O)[O-])s1` [Compound 5-22, 5-nitro-N-(1-phenyl-6-(3-(trifluoromethyl)-1H-pyrazol-1-yl)-1H-pyrazolo[3,4-d]pyrimidin-4-yl)thiophene-2-carboxamide], the LC50 under setting [3] is 0.38 µM. Same read-out and setting: with `O=C(Nc1nc(-c2ccsc2)nc2c1cnn2-c1ccccc1)c1ccc([N+](=O)[O-])s1` [Compound 5-20, 5-nitro-N-(1-phenyl-6-(thiophen-3-yl)-1H-pyrazolo[3,4-d]pyrimidin-4-yl)thiophene-2-carboxamide] the figure was 1.11 µM. On to `O=C(Nc1nc(-c2ccc(Cl)cc2)nc2c1cnn2C1CCC(F)(F)CC1)c1ccc([N+](=O)[O-])s1` [Compound 10-56, N-(6-(4-chlorophenyl)-1-(4,4-difluorocyclohexyl)-1H-pyrazolo[3,4,d]pyrimidin-4-yl)-5-nitrothiophene-2-carboxamide], for which the LC50 under setting [2] stood at 0.77 µM. With `CCOCCOc1ccc(-c2nc(NC(=O)c3ccc([N+](=O)[O-])s3)c3cnn(-c4ccc(Cl)cc4)c3n2)cn1` [Compound 6-52, N-(1-(4-chlorophenyl)-6-(6-(2-ethoxyethoxy)pyridin-3-yl)-1H-pyrazolo[3,4-d]pyrimidin-4-yl)-5-nitrothiophene-2-carboxamide], the LC50 under setting [1] is 0.22 µM.

As a reminder, the LC50 is the concentration that kills 50% of the test population.
